Test results from PubChem BioAssay (NCI).
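Step 1: Grow cells in 96-well plates. Step 2: Expose to compound for 48 hours at 5 concentrations. Step 3: Interpolate endpoints linearly; if unreached, use highest concentration. TGI is the concentration that stops growth completely.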

Experiments:
Test in all cases: growth of human tumour cells (NCI), 48 h
OVCAR-8 ovarian = test system: OVCAR-8 ovarian
HOP-92 NSCLC = test system: HOP-92 NSCLC
SNB-75 CNS = test system: SNB-75 CNS
COLO 205 colon = test system: COLO 205 colon
CAKI-1 renal = test system: CAKI-1 renal
A549 NSCLC = test system: A549 NSCLC
DU-145 prostate = test system: DU-145 prostate
OVCAR-4 ovarian = test system: OVCAR-4 ovarian
EKVX NSCLC = test system: EKVX NSCLC
SW-620 colon = test system: SW-620 colon
ACHN renal = test system: ACHN renal
M14 melanoma = test system: M14 melanoma
NCI-H226 lung = test system: NCI-H226 lung
U251 CNS = test system: U251 CNS
SF-295 CNS = test system: SF-295 CNS
MDA-MB-231 breast = test system: MDA-MB-231 breast
OVCAR-3 ovarian = test system: OVCAR-3 ovarian
A498 renal = test system: A498 renal
MDA-N = test system: MDA-N
HCT-116 colon = test system: HCT-116 colon
SK-MEL-5 melanoma = test system: SK-MEL-5 melanoma
RXF 393 renal = test system: RXF 393 renal
OVCAR-5 ovarian = test system: OVCAR-5 ovarian
MDA-MB-435 = test system: MDA-MB-435
UO-31 renal = test system: UO-31 renal
HT29 colon = test system: HT29 colon
NCI/ADR-RES ovarian = test system: NCI/ADR-RES ovarian
TK-10 renal = test system: TK-10 renal
SF-268 CNS = test system: SF-268 CNS
SNB-19 CNS = test system: SNB-19 CNS
HCT-15 colon = test system: HCT-15 colon
KM12 colon = test system: KM12 colon
IGROV1 ovarian = test system: IGROV1 ovarian
PC-3 prostate = test system: PC-3 prostate
SF-539 CNS = test system: SF-539 CNS
NCI-H23 lung = test system: NCI-H23 lung
SN12C renal = test system: SN12C renal
SK-OV-3 ovarian = test system: SK-OV-3 ovarian
786-0 renal = test system: 786-0 renal
CCRF-CEM leukemia = test system: CCRF-CEM leukemia
MCF7 breast = test system: MCF7 breast
HS 578T breast = test system: HS 578T breast
BT-549 breast = test system: BT-549 breast
UACC-62 melanoma = test system: UACC-62 melanoma
SK-MEL-28 melanoma = test system: SK-MEL-28 melanoma
MALME-3M melanoma = test system: MALME-3M melanoma
RPMI-8226 leukemia = test system: RPMI-8226 leukemia
UACC-257 melanoma = test system: UACC-257 melanoma
NCI-H522 lung = test system: NCI-H522 lung
MOLT-4 leukemia = test system: MOLT-4 leukemia
HCC-2998 colon = test system: HCC-2998 colon
LOX IMVI melanoma = test system: LOX IMVI melanoma
SR leukemia = test system: SR leukemia
K-562 leukemia = test system: K-562 leukemia
SK-MEL-2 melanoma = test system: SK-MEL-2 melanoma
HOP-62 NSCLC = test system: HOP-62 NSCLC
NCI-H460 lung = test system: NCI-H460 lung

CC1(C)CC(=O)C(C(CC(c2ccccc2)c2cc3c(cc2O)OCO3)C2=C(O)CC(C)(C)CC2=O)=C(O)C1 (stereo not drawn)
TGI (OVCAR-8 ovarian): > 10 µM
TGI (HOP-92 NSCLC): > 10 µM
TGI (SNB-75 CNS): > 10 µM
TGI (COLO 205 colon): > 10 µM
TGI (CAKI-1 renal): > 10 µM
TGI (A549 NSCLC): > 10 µM
TGI (DU-145 prostate): > 10 µM
TGI (OVCAR-4 ovarian): > 10 µM
TGI (EKVX NSCLC): > 10 µM
TGI (SW-620 colon): > 10 µM
TGI (ACHN renal): > 10 µM
TGI (M14 melanoma): > 10 µM
TGI (NCI-H226 lung): > 10 µM
TGI (U251 CNS): > 10 µM
TGI (SF-295 CNS): > 10 µM
TGI (MDA-MB-231 breast): > 10 µM
TGI (OVCAR-3 ovarian): > 10 µM
TGI (A498 renal): > 10 µM
TGI (MDA-N): > 10 µM
TGI (HCT-116 colon): > 10 µM
TGI (SK-MEL-5 melanoma): > 10 µM
TGI (RXF 393 renal): > 10 µM
TGI (OVCAR-5 ovarian): > 10 µM
TGI (MDA-MB-435): > 10 µM
TGI (UO-31 renal): > 10 µM
TGI (HT29 colon): > 10 µM
TGI (NCI/ADR-RES ovarian): > 10 µM
TGI (TK-10 renal): > 10 µM
TGI (SF-268 CNS): > 10 µM
TGI (SNB-19 CNS): > 10 µM
TGI (HCT-15 colon): > 10 µM
TGI (KM12 colon): > 10 µM
TGI (IGROV1 ovarian): > 10 µM
TGI (PC-3 prostate): > 10 µM
TGI (SF-539 CNS): > 10 µM
TGI (NCI-H23 lung): > 10 µM
TGI (SN12C renal): > 10 µM

S=c1c2cn[nH]c2nc2scc(-c3ccc(Cl)cc3)n12
TGI (OVCAR-8 ovarian): 41.7 µM
TGI (SNB-75 CNS): 28.2 µM
TGI (COLO 205 colon): 65.3 µM
TGI (SK-OV-3 ovarian): > 100 µM
TGI (CAKI-1 renal): 24.6 µM
TGI (786-0 renal): 29.4 µM
TGI (A549 NSCLC): 30.5 µM
TGI (OVCAR-4 ovarian): > 100 µM
TGI (CCRF-CEM leukemia): 50.9 µM
TGI (EKVX NSCLC): 49.1 µM
TGI (MCF7 breast): 36.3 µM
TGI (SW-620 colon): 22.3 µM
TGI (ACHN renal): 27 µM
TGI (M14 melanoma): 36.3 µM
TGI (HS 578T breast): 38.8 µM
TGI (U251 CNS): 25.8 µM
TGI (BT-549 breast): 27.5 µM
TGI (MDA-MB-231 breast): > 100 µM
TGI (UACC-62 melanoma): > 100 µM
TGI (SK-MEL-28 melanoma): 46.6 µM
TGI (OVCAR-3 ovarian): 47.8 µM
TGI (MALME-3M melanoma): 49.6 µM
TGI (MDA-N): 26.2 µM
TGI (RPMI-8226 leukemia): 64.9 µM
TGI (HCT-116 colon): 27.9 µM
TGI (SK-MEL-5 melanoma): > 100 µM
TGI (UACC-257 melanoma): > 100 µM
TGI (RXF 393 renal): 17.5 µM
TGI (OVCAR-5 ovarian): 29.4 µM
TGI (NCI-H522 lung): 46.9 µM
TGI (MDA-MB-435): 15.7 µM
TGI (UO-31 renal): 41.8 µM
TGI (HT29 colon): 32.6 µM
TGI (MOLT-4 leukemia): 60.1 µM
TGI (NCI/ADR-RES ovarian): 31.2 µM
TGI (HCC-2998 colon): 32.5 µM
TGI (TK-10 renal): 31.8 µM
TGI (LOX IMVI melanoma): 23.3 µM
TGI (SR leukemia): 28.9 µM
TGI (SF-268 CNS): 42.5 µM
TGI (SNB-19 CNS): 86.2 µM
TGI (HCT-15 colon): 26.1 µM
TGI (KM12 colon): 28.8 µM
TGI (K-562 leukemia): > 100 µM
TGI (SK-MEL-2 melanoma): 46.6 µM
TGI (PC-3 prostate): 29.8 µM
TGI (HOP-62 NSCLC): 40.1 µM
TGI (SF-539 CNS): 38.4 µM
TGI (NCI-H460 lung): 57.5 µM
TGI (NCI-H23 lung): 30.1 µM
TGI (SN12C renal): 32 µM
